Where two headings read alike, the source gives them in different places.
Assays:
MAT-Lu cells = experiment: Pseudopod morphometry (pseudopod length assay), MAT-Lu cells; format: cell-based, rat
How it was run: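 Cells plated at 1×10^4 per 35-mm dish overnight, shifted to serum-free medium 1 h, then exposed to thrombin, AA or HETEs in medium or by local micropipette puff. Phase-contrast images over time at heated stage; length measured from nucleus centre to process tip, analysed by gamma regression and non-parametric tests.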

AT-2 cells = experiment: Pseudopod length / retraction assay, AT-2 cells; format: cell-based, rat; details: AA even at 10^−1M
Experimental: Pseudopod Morphometry. To study the effects of various agents on pseudopods on a short-term basis, we measured pseudopod lengths. Cells plated in 35-mm diameter dishes at low density (1×10^4 per dish) were incubated overnight, tie medium was changed, and the experiments were run four hours later. First, cultures were shifted to serum-free medium, which was replaced one hour later by serum-free medium with or without the various agents (thrombin, AA or HETEs). Care was taken to avoid heat and light inactivation of the eicosanoids. Culture dishes were placed on a Zeiss inverted microscope equipped with a heated stage and viewed with a 16×phase contrast objective lens. Randomly selected fields of the cultures, containing generally about 20 cells each, were recorded, digitized and stored in the computer at the onset of the experiment and at different times thereafter.
In some cases, individual cells were monitored over different periods of time immediately after introduction of the reagent, either by mixing it into the medium or by applying it locally to one end of the cell. Local application was done with a “puffer” system that expels microliter amounts of the desired solution from a micromanipulator-controlled micropipette tip. Cell morphology was recorded, and the captured images were analyzed with a Power Macintosh computer using NIH Image. Cell process length was measured from the center of the nucleus to the end of the process. Characterization of the frequencies of pseudopod lengths, at a fixed time for each of a sequence of concentrations of reagent, utilized a gamma regression model with an inverse quadratic linear predictor (McCullagh and Nelder, Generalized Linear Models 2d ed., pp. 291-292 (Chapman & Hall, 1989), separately fit to each concentration data set. Although no formal goodness-of-fit tests were carried out, in virtually every case there was good visual representation of the pattern of response (see FIG. 14). Most data, however, are shown as whisker-box plots, where the center point represents the 50%, the ends of the box the […] and 75%, and the “whiskers” the 5% and 95% quantiles (e.g., FIG. 11). Statistical comparisons of pseudopod lengths for different treatments were done by standard non-parametric techniques (Wilcoxon Rank Sum or Kruskal-Wallis Tests), as judged appropriate. Polynomial curve fittings were done by standard least-squares techniques. Statistical analyses and graphing were done with the use of SAS procedures: Reg, Phreg, Nparlway and Plot (SAS institute Inc., Cary, N.C.).

cPLA2 = cPLA2 activation in AT-2 cells; format: biochemical, rat
Experimental: FIG. 9. Thrombin activation of cPLA2 in AT-2 cells incubated with either ^14C-AA-PI, -PC or -PE as substrate, for 10 min at 37° C. Released AA and diacylglycerol were isolated and counted.

growth cone PLA2 = experiment: PLA2 assay in growth cone particles (GCPs); format: biochemical, rat; details: for net activity (pmol/min/mg protein), GCPs: Table 3a, 100 nM
How it was run: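 Growth cone particles isolated from 18-day fetal brain homogenate in 0.32 M sucrose/MgCl2/TES pH 7.3 with aprotinin, taken from the 0.32/0.83 M interface after 242,000 g gradient spin. Assays run in triplicate.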

[1] = test system: growth cones in cultures of rat cerebral cortex; experiment: Growth cone collapse assay in cortical neuron culture; format: cell-based; details: thrombin 100 nM
Experimental: Neuron Culture. Cerebral cortices were dissected from embryonic day 18 Sprague-Dawley rats, cut into explants of less than 1 mm^3 and cultured on either poly-D-lysine-coated coverglass (Assistent) or poly-D-lvsine-coated tissue culture plastic. After 24 hours in B27 neurobasal medium (NB) supplemented with 10% fetal bovine serum, cultures were switched to serum-free B27/NB. The cultures were incubated at 37° C. in 5% CO2 in air. Sprouting neurons were observed readily on day 1. On day 2 or 3, long neurites were present, and the cultures were used for collapse experiments.
Actin Staining. After experimentation, cultures were fixed by slow infusion of fixative (4% paraformaldehyde in 0.1 M phosphate buffer, pH 7.4) into the culture dishes over 10 min (Pfenninger and Maylié-Pfenninger, J. Cell Biol. 89:53-546 (1981)). Thereafter, the fixative was removed by rinsing three times with phosphate-buffered saline (PBS) containing 1 mM glycine. Cultures were then blocked with PBS/1% bovine serum albumin (BSA) and permeabilized by incubation in 0.02% Triton X-100 for 5 min. After three washes in PBS/BSA, cultures were incubated with Texas-Red-conjugated phalloidin for 30 min. Unbound phalloidin was washed away by two PBS rinses, after which the coverglasses were mounted in Slow-Fade Light on microscope slides. Images were recorded on 35 mm film using a Zeiss Axiophot fluorescence microscope equipped with epiillumination.
Growth Cone Collapse Assay. Prior to repellent factor treatment, some of the day 2-3 explant cultures were pre-incubated (at 37° C.) with inhibitor or vehicle control (dimethylsulfoxide or ethanol) for 30-60 min. Cultures were then challenged with a repellent factor or vehicle control for 1-30 min. In some experiments, live cultures were photographed with a Zeiss IM 35 inverted photo microscope equipped with a stage heater, while in others cultures were fixed (as above) after 7 minutes of repellent factor treatment. Growth cone collapse was assessed quantitatively in aldehyde-fixed cultures by grading the degree of collapse in a large number of randomly selected growth cones.

phospholipase C = details: thrombin stimulation as for PLA2
Experimental: MAT-Lu cells were plated at a density of 0.5×10^6 cells per flask (T-75) and grown as detailed above to approximately 25% confluency. On the day before the experiments, the serum level in the medium was dropped to 1%. Cells were fed with fresh 1% serum-medium 4 hrs prior to harvest. For harvesting, cells were rinsed with Ca^++,Mg^++-free HBSS, covered with 2 ml cold Ca^++-free modified Krebs buffer (220 mM sucrose, 50 mM NaCl, 5 mM KCl, 22 mM HEPES, 10 mM glucose. 1.2 mM NaH2PO4 and 1.2 mM MgCl2, pH 7.3), and placed on ice. Cells were scraped off, pelleted for 5 min at 200 rpm and re-suspended in a minimal volume of Krebs buffer. Aliquots were used to determine protein concentration (Biorad Assay) and phopholipase activity. […] Lipid extraction followed by thin-layer chromatography (Negre-Aminou et al., J Neurochem 67:2599-2608 (1996)) isolated the reaction product (identified by co-migration with AA standard), which was then scraped off the plates and analyzed in a scintillation spectrometer (Beckman). In some experiments, especially those involving ^14C-AA-phosphatidylinositol as substrate, the diacylglycerol-containing band (identified by co-migration of standard) also was scraped and counted in order to measure phospholipase C (PLC) activity.

thrombin: potent growth cone repellent; commercially available thrombin (Sigma); rat thrombin in Boyden assays
time to pseudopod retraction after addition to cells in culture dish (MAT-Lu cells): 5 to 10 min
effect of agent alone on pseudopod length (MAT-Lu cells; typically 15 min exposure): caused pseudopod shortening in MAT-Lu cells within minutes of administration
pseudopod retraction response of AT-2 cells (AT-2 cells): essentially did not respond
stimulation of cPLA2, PC substrate (cPLA2): over 100 fold
stimulation of cPLA2, PE substrate (cPLA2): about 30 fold
stimulation of cPLA2, PI substrate (cPLA2): over 100 fold
concentration at which PLA2 activation saturates (growth cone PLA2; AA release from PI): about 250 nM
net activity (pmol/min/mg protein), GCPs (growth cone PLA2; substrate PE): 210.2 ± 4.8 pmol/min/mg protein
net activity (pmol/min/mg protein), GCPs (growth cone PLA2; substrate PI): 262 ± 47 pmol/min/mg protein
net activity (pmol/min/mg protein), no DTT (growth cone PLA2; Table 3b, GCPs, substrate PI, thrombin 100 nM): 221 ± 39.9 pmol/min/mg protein
net activity (pmol/min/mg protein), 50 nM DTT (growth cone PLA2; Table 3b, GCPs, substrate PI, thrombin 100 nM or control): 223 ± 53.4 pmol/min/mg protein
net activity (pmol/min/mg protein) (growth cone PLA2; Table 3c, GCPs, substrate PI, BDNF 100, IGF-1 0.75, insulin 1, thrombin 200 nM, control 159 ± 6.2): 355 ± 28.0 pmol/min/mg protein
stimulation of PC-hydrolyzing cPLA2 (14C-AA release from PC) (growth cone PLA2; thrombin 100 nM, GCPs): about 7 fold
stimulation of cPLA2-PE (14C-AA release from PE) (growth cone PLA2; thrombin 100 nM, GCPs): ~7 fold
stimulation of cPLA2-PI (14C-AA release from PI) (growth cone PLA2; thrombin 100 nM, GCPs): about 5 fold
stimulation of PC-hydrolyzing cPLA2 (14C-AA release from PC) (growth cone PLA2; thrombin 100 nM, GCPs, listed as Thrombin): ~7 fold
time until most growth cones are fully collapsed [1]: 10 to 20 min
growth cone collapse, agent alone ([1]; TRAP (100 mM), 12(S)-HETE 10^−7 M): most growth cones are fully collapsed
effect on DAG release from PI / phospholipase C (words) (phospholipase C): reduced DAG release rather than stimulating it
effect on DAG release from PI / phospholipase C (words) (phospholipase C; listed as Thrombin): did not activate phospholipase C in MAT-Lu cells

From US6566047B1, “Method for identifying neurite-growth promoting agents” (The Regents of the University of Colorado, priority 1998, dated 2003)
